In patent US20090111177A1, “Maintenance of Embryonic Stem Cells by the GSK-3 Inhibitor 6-Bromoindirubin-3'-Oxime” (THE ROCKEFELLER UNIVERSITY, priority 2003, published 2009):
“Also recorded” adds a separate entry of the source.

Columns and labels:
[1] = tested on: CJ-GFP cells (MESCs); test: Low-density culture of CJ-GFP MESCs without LIF, morphology; format: cell-based, mouse; conditions: 1 μM; 7 d plus 5 d at low density; data not shown for Me analogue
Description: Teratoma formation. We grew CJ-GFP cells at a low density (500 cells/cm^2) on gelatin-coated 10 cm dishes in medium containing 6-bromoindirubin-3′-oxime 1 μM for 7 d, then passaged cells at the same density and cultured under the same condition another 5 d to further enforce differentiation of cells.

[2] = tested on: H1 cells; test: Differentiation of HESCs into neurons on PA6 stromal cells; format: cell-based, human; conditions: comparable to conditioned medium-treated cells
Description: Differentiation of ES cells into neurons. The PA6 stromal cell line (RIKEN) was used for the co-culture system (Kawasaki et al., 2002, Generation of dopaminergic neurons and pigmented epithelia from primate ES cells by stromal cell-derived inducing activity. Proc Natl Acad Sci USA 99, 1580-1585). H1 cell colonies grown on Matrigel under different conditions for 7 d were harvested and cultured (100˜200 cells/clump, approximately 5 clumps/well of a 12-well plate) on PA6 stromal cells in 90% Knockout-Dulecco's modified Eagle's medium, 10% KSR, 1 mM L-glutamine, 1% non-essential amino acids, 0.1 mM β-mercaptoethanol for 3 weeks as previously described (Sato et al., 2003, Molecular signature of human embryonic stem cells and its comparison with the mouse. Dev Biol 260, 404-413). At the end of the culture period, cells were stained with a neuron-specific antibody, Tuj-1, as shown below. The number of wells containing Tuj-1 positive neurons was determined in each condition in repeated experiments.

[3] = tested on: HESCs (H1, BGN1); test: Feeder-free culture of HESCs, undifferentiated morphology; format: cell-based, human; conditions: feeder-free, non-conditioned medium; 7 d; 6-bromoindirubin-3′-oxime and Me analogue 2 μM, LiCl 5 mM, Wnt3a protein
Description: (§1) Cell culture. Human embryonic stem cells (HESCs) lines were provided by WiCell Research Institute (H1 line)^5 and BresaGen Inc. (BGN1 and BGN2 lines). H1 cells were cultivated on irradiated mouse embryonic fibroblasts (MEFs) in medium consisting of 80% DMEM/F12 medium, 20% knockout serum replacement (KSR), 1 mM L-glutamine, 1% non-essential amino acids, 0.1 mM β-mercaptoethanol, and 4 ng/ml basic FGF (all from Invitrogen). […] Subsequently, HESCs were cultured on Matrigel (BD biosciences) in medium conditioned by MEFs, and passaged several times until colonies became free from contaminating MEFs as described before^9.

[4] = tested on: β-catenin; test: β-catenin immunofluorescence confocal analysis in HESCs; format: cell-based, human; conditions: compared to non-conditioned medium treated cells, FIG. 2c
Description: as §1
Immunofluorescence. […] For the quantitative image analysis, fluorescent images from triplicate samples were taken by the Discovery1 system (Universal Imaging Corporation). The fluorescent objects were selected by the threshold function and evaluated in five regions of each well by quantification of pixel intensities and the object size by using MetaMorph software (Universal Imaging Corporation).

[5] = tested on: HESCs (H1); test: Embryoid body formation from HESCs; format: cell-based, human
Description: Embryoid body (EB) formation. HESCs were harvested by using dispase (Invitrogen), plated on non-tissue culture treated dishes (approximately 10^7 cells/10 cm dish), and grown in non-conditioned medium for 7 d as described before (Sato et al., 2003, Molecular signature of human embryonic stem cells and its comparison with the mouse. Dev Biol 260, 404-413). The number of EBs was determined by counting EBs in 20 different fields at a low magnification (10×) using an Axiovert microscope (Zeiss). Experiments were repeated at least three times, and the average number as well as standard deviation were calculated. For the detection of differentiated derivatives by immunocytochemistry, EBs (day 7) were plated on collagen-coated 12-well plates to allow them to adhere, grown in DMEM containing 10% FBS to induce further differentiation for 7 d and fixed in 4% paraformaldehyde followed by immunostaining as shown below.
RT-PCR. Two μg of total RNA extracted from EBs (day 7) or mouse embryonic fibroblasts was reverse-transcribed using ThermoScript RT-PCR system (Invitrogen) according to the manufacturer's protocol. One μl of cDNA sample was PCR amplified with each gene-specific primers (shown below) using optimized PCR cycles to obtain amplified reactions in a linear range.

[6] = tested on: cyclin D1; test: cyclin D1 immunofluorescence in HESCs; format: cell-based, human; conditions: HESCs (BGN2); non-CM; 6-bromoindirubin-3′-oxime 1.0 μM or Wnt3a protein 100 ng; FIG. 7
Description: Immunofluorescence. HESCs were grown in conditioned medium (CM), non-CM, non-CM containing Me 6-bromoindirubin-3′-oxime (1.0 μM), non-CM containing 6-bromoindirubin-3′-oxime (1.0 μM) or non-CM containing recombinant mouse Wnt3a protein (100 ng/ml, R&D systems) for 5 d. Cells were fixed in 4% paraformaldehyde for 20 min at room temperature and incubated overnight at 4° C. with primary antibodies against cyclin D1 (Santa Cruz Technology, Santa Cruz, Calif.). Antigens were localized by using goat anti-rabbit IgG conjugated to Cy3 (Zymed laboratories).

[7] = tested on: CJ-GFP cells (MESCs); test: Blastocyst injection of treated CJ-GFP cells, chimera generation; format: in vivo, mouse
Description: Blastocyst injection. We cultured CJ-GFP cells at a low density (500 cells/cm^2) on gelatin-coated 10 cm dishes in medium containing 6-bromoindirubin-3′-oxime 1 μM for 5 d. 6-bromoindirubin-3′-oxime-treated cells (approximately 10 to 15 cells per blastocyst) were microinjected into each blastocyst and transferred into surrogate mice in the C57Bl/6 background. Mid-gestation embryos were recovered and subjected to tissue sectioning. Chimerism of live offspring was determined by evaluation of their mixed coat color.
Immunofluorescence. Cells were fixed in 4% paraformaldehyde for 20 min at room temperature and incubated overnight at 4° C. with primary antibodies against Oct-4 (BD Biosciences), β-catenin (BD Biosciences), Tuj-1 (BAbCO), cytokeratin (Sigma), glial fibrillary acidic protein, GFAP, (Dako), smooth muscle actin (Research Diagnostics Inc), α-fetoprotein (α-FP, Cell Sciences) and Tromal (Developmental Studies Hybridoma Bank). […] For the quantitative image analysis, fluorescent images from triplicate samples were taken by the Discovery1 system (Universal Imaging Corporation). The fluorescent objects were selected by the threshold function and evaluated in five regions of each well by quantification of pixel intensities and the object size by using MetaMorph software (Universal Imaging Corporation).

For `O=C1Nc2cc(Br)ccc2/C1=C1/Nc2ccccc2/C1=N\O` [6-bromoindirubin-3′-oxime], the “colony morphology of MESCs without LIF” value [1] was “still formed round tight colonies”, the “neurogenesis on stromal feeders (Tuj-1)” value [2] was “robust neurogenesis” and the “morphology / undifferentiated phenotype of HESCs” value [3] was “largely retained an undifferentiated morphology”. For the same compound, the “nuclear accumulation of β-catenin” value [4] was “nuclear accumulation of β-catenin”, the “lineage-specific markers of EBs by RT-PCR” value ([5]; EBs day 7, FIG. 5b) was “developed into ectoderm (NeuroD and keratin), mesoderm (T gene) and endoderm (α-fetoprotein and GATA4) derivatives” and the “differentiation phenotype of adherent EBs by immunocytochemistry” value ([5]; EBs grown under adherent condition, FIG. 5c) was “wide variety of morphology and lineage-specific molecule expression”. For the same compound, the EBs formation ([5]; H1 cells after treatment, FIG. 5a) was “at a level comparable to that seen with conditioned medium-treated cells”, the “cyclin D1 expression” value [6] was “upregulated; also recorded: up-regulated cyclin D1 expression” and the “coat-color chimerism of live offspring” value ([7]; initial assessment, new-born animals) was “two of five new-born animals were chimeric”. The “incorporation of treated cells into embryonic tissues” value ([7]; mid-gestation stage, immunohistochemistry, FIG. 6) was “incorporated into several embryonic tissues”.
